Results taken from article PMC12888920, “MMP-9 regulates disulphide isomerase activity of TGM2 to enhance fusion glycoprotein-mediated syncytium formation of respiratory syncytial virus” (Protein & Cell, 2025).
pEC50: −log10 of the molar value.

Experiments:
[1] = Cell viability assay (CellTiter-Glo) in HEp-2 cells; assay type: cell-based; conditions: human
Description: (§1) Figure 7. MMP-9-mediated TGM2 cleavage potentiates RSV–host interaction. (A) Cytotoxicity profiling. Dose-response curves of TGM2 inhibitors (ZED-1227, Cystamine, Bacitracin, E64FC26, ML359) in HEp-2 cells (72 h treatment). Viability was assessed by CellTiter-Glo assay. Data normalized to untreated controls. mean ± SD, n = 3. (B) Antiviral efficacy. Viral inhibition (FFA) in RSV A2-infected HEp-2 cells treated with TGM2 inhibitors at threefold dilution gradients: ZED-1227 (60–10 µmol/L), Cystamine (200–22.2 µmol/L), Bacitracin (500–50 µmol/L), E64FC26 (0.2–0.05 µmol/L), and ML359 (10–1.1 µmol/L). DMSO as vehicle control. mean ± SD, n = 3. (C) TGM2–F protein interaction. Co-IP analysis in HEK293T cells co-expressing TGM2 and RSV F (48 h). Immunoblots were probed with anti-TGM2, anti-F, or IgG control. Blots represent three independent experiments. (D) Binding kinetics. BLI quantification of TGM2–DS-Cav1 (RSV F prefusion conformation) interaction. The results represent three biological replicates. (E) Ternary complex formation. Co-IP of MMP-9-TGM2-F complex in HEK293T cells (48 h). GAPDH as loading control. Below the asterisk represents the objective band. Blots represent three independent experiments. (F) Impairing MMP-9/TGM2/RSV-F complex inhibits RSV infection. […] (G) Proteolytic enhancement. MMP-9-cleaved TGM2 (TGM2-44) enhances protein disulfide isomerase (PDI) activity was measured using reduced DS-Cav1. mean ± SD, n = 3. (H) Truncation functional analysis. Viral titers (FFA) in HEp-2 cells expressing MMP-9, TGM2, or cleavage fragments (TGM2-44/41) post RSV infection (MOI = 1, 72 hpi). mean ± SD, n = 3. (I) Syncytium rescue. Syncytia area quantification in TGM2 truncation-expressing cells (ImageJ software). mean ± SD, n = 3. (J) Subcellular redistribution. Confocal microscopy of HEp-2 cells co-expressing TGM2 truncations (HA/FLAG-tagged) and RSV F (72 hpi). Scale bar: 10 µm. Images represent three biological replicates. (K) F protein expression. Fluorescence intensity quantification of RSV F in (J) (ImageJ software). mean ± SD, n = 3. (L) Fusion competence assay. Syncytium formation in HEK293T cells co-expressing TGM2 truncations and RSV F/F-C37S/C69S mutants (48 h). Scale bar: 10 µm. Images represent three biological replicates. (M) Mutant validation. RSV F expression levels in (L) were quantified by ImageJ software. mean ± SD, n = 3. The results are representatively shown with three random experiments. The error bars indicate the mean ± SD of three technical replicates (n = 3). […]
(§2) (B-C) Cytotoxicity profiles in HEp-2 (B) and HBEC (C) cells. […] Viability was assessed using the CellTiter-Glo assay (G7570, Promega). […]
(§3) 95 Cell viability was evaluated using a CellTiter -Glo® Luminescent Cell Viability Assay 96 kit (G7571, Promega) according to the manufacturer’s instructions. […]

[2] = test system: RSV A2; assay: Viral inhibition (FFA) in RSV A2-infected HEp-2 cells treated with TGM2 inhibitors; assay type: cell-based, Respiratory syncytial virus; conditions: HEp-2, RSV A2; ZED-1227 60–10, Cystamine 200–22.2, Bacitracin 500–50, E64FC26 0.2–0.05, ML359 10–1.1 µmol/L
Description: Figure 7. MMP-9-mediated TGM2 cleavage potentiates RSV–host interaction. (A) Cytotoxicity profiling. Dose-response curves of TGM2 inhibitors (ZED-1227, Cystamine, Bacitracin, E64FC26, ML359) in HEp-2 cells (72 h treatment). Viability was assessed by CellTiter-Glo assay. Data normalized to untreated controls. mean ± SD, n = 3. (B) Antiviral efficacy. Viral inhibition (FFA) in RSV A2-infected HEp-2 cells treated with TGM2 inhibitors at threefold dilution gradients: ZED-1227 (60–10 µmol/L), Cystamine (200–22.2 µmol/L), Bacitracin (500–50 µmol/L), E64FC26 (0.2–0.05 µmol/L), and ML359 (10–1.1 µmol/L). DMSO as vehicle control. mean ± SD, n = 3. (C) TGM2–F protein interaction. Co-IP analysis in HEK293T cells co-expressing TGM2 and RSV F (48 h). Immunoblots were probed with anti-TGM2, anti-F, or IgG control. Blots represent three independent experiments. (D) Binding kinetics. BLI quantification of TGM2–DS-Cav1 (RSV F prefusion conformation) interaction. The results represent three biological replicates. (E) Ternary complex formation. Co-IP of MMP-9-TGM2-F complex in HEK293T cells (48 h). GAPDH as loading control. Below the asterisk represents the objective band. Blots represent three independent experiments. (F) Impairing MMP-9/TGM2/RSV-F complex inhibits RSV infection. […] (G) Proteolytic enhancement. MMP-9-cleaved TGM2 (TGM2-44) enhances protein disulfide isomerase (PDI) activity was measured using reduced DS-Cav1. mean ± SD, n = 3. (H) Truncation functional analysis. Viral titers (FFA) in HEp-2 cells expressing MMP-9, TGM2, or cleavage fragments (TGM2-44/41) post RSV infection (MOI = 1, 72 hpi). mean ± SD, n = 3. (I) Syncytium rescue. Syncytia area quantification in TGM2 truncation-expressing cells (ImageJ software). mean ± SD, n = 3. (J) Subcellular redistribution. Confocal microscopy of HEp-2 cells co-expressing TGM2 truncations (HA/FLAG-tagged) and RSV F (72 hpi). Scale bar: 10 µm. Images represent three biological replicates. (K) F protein expression. Fluorescence intensity quantification of RSV F in (J) (ImageJ software). mean ± SD, n = 3. (L) Fusion competence assay. Syncytium formation in HEK293T cells co-expressing TGM2 truncations and RSV F/F-C37S/C69S mutants (48 h). Scale bar: 10 µm. Images represent three biological replicates. (M) Mutant validation. RSV F expression levels in (L) were quantified by ImageJ software. mean ± SD, n = 3. The results are representatively shown with three random experiments. The error bars indicate the mean ± SD of three technical replicates (n = 3). Statistical analysis: one-way ANOVA with Dunnett’s post hoc test (B, F, G, H, I, K, M); unpaired two-tailed Student’s t-test (F, H, I, K, M). *P < 0.05, **P < 0.01, ***P < 0.001; ns, not significant.

[3] = test system: RSV A2; assay: Antiviral activity (FFA) against RSV A2 in HEp-2 cells; assay type: cell-based; conditions: human respiratory syncytial virus
Text: (§4) Figure 1. Antiviral activity of metalloproteinase inhibitors against RSV in vitro. (A) Experimental workflow for RSV A2 infection and compound treatment. (B) High-throughput screening of TargetMol L1100 library (246 host protease inhibitors targeting 10 pathways: MMPs, caspases, proteasomes, apoptosis regulators, cysteine proteases, gamma-secretase, autophagy modulators, serine proteases, DPP-4, and beta-secretase) using concentration gradients (1, 5, 10 µmol/L). HEp-2 cells were pretreated with compounds for 1 hour prior to RSV A2 infection (MOI = 0.1). Plaque formation was quantified at 72 hours post-infection (hpi) and normalized to DMSO controls. […] (G) Target overlap analysis of four MMP-9-targeting inhibitors. (H) Viral titers in supernatants of HEp-2 cells transfected with MMP-specific siRNAs (24 h) followed by RSV A2 infection (MOI = 1, 72 h). mean ± SD, n = 3. The results are representatively shown with three random experiments. The error bars indicate the mean ± SD of three technical replicates (n = 3). Statistical significance was determined by one-way ANOVA with Dunnett’s post hoc test: *P < 0.05, ***P < 0.001; ns, not significant. […]
(§5) 110 overtly cytotoxic) underwent dose -response validation (0.00004 –10 μM) to generate
(§6) 111 EC50 curves (GraphPad Prism 8.0) .
(§7) 112 Evaluation of in vitro antiviral activity
(§8) 113 Compound inhibitor treatments: HEp-2 cells (1.3×10⁴/well) or HBEC (1.8×10⁴/well)
(§9) 114 were pretreated with test compounds for 1 h before RSV A2/B18537 infection
(§10) 115 (MOI=0.1 or 0.3). Viral inhibition was quantified at 72 hpi via FFA. Fixed cells (4%
(§11) 116 PFA) were permeabilized (0.3% Triton X-100), stained with anti-RSV-FITC
(§12) 118 Fluorescent foci were normalized to nuclear counts (ImageJ software) for EC 50
(§13) 119 determination via four-parameter logistic regression (GraphPad Prism 8.0). Data
(§14) 120 represent triplicate experiments. […]

[4] = test system: RSV B18537; assay: Antiviral activity (FFA) against RSV B18537 in HEp-2 cells; assay type: cell-based; conditions: human respiratory syncytial virus
Text: as §4
(§15) 109 111813, MCE) and 0.1% DMSO vehicle. Primary hits (>50% CPE reduction + not
as §5, §6, §7, §8, §9, §10, §11, §12, §13, §14

[5] = test system: RSV A2; assay: Antiviral activity (FFA) against RSV A2 in primary human bronchial epithelial cells (HBEC); assay type: cell-based; conditions: human respiratory syncytial virus, Epithelial cell
Text: as §4, §7, §8, §9, §10, §11, §12, §13, §14

[6] = test system: RSV B18537; assay: Antiviral activity (FFA) against RSV B18537 in HBEC; assay type: cell-based; conditions: human respiratory syncytial virus
Text: as §4, §7, §8, §9, §10, §11, §12, §13, §14

[7] = test system: RSV A2; assay: High-throughput antiviral screening of protease inhibitor library against RSV A2 in HEp-2 cells; assay type: cell-based, Respiratory syncytial virus; conditions: RSV A2, MOI = 0.1, 1, 5, 10 µmol/L, 72 hpi
Text: Figure 1. Antiviral activity of metalloproteinase inhibitors against RSV in vitro. (A) Experimental workflow for RSV A2 infection and compound treatment. (B) High-throughput screening of TargetMol L1100 library (246 host protease inhibitors targeting 10 pathways: MMPs, caspases, proteasomes, apoptosis regulators, cysteine proteases, gamma-secretase, autophagy modulators, serine proteases, DPP-4, and beta-secretase) using concentration gradients (1, 5, 10 µmol/L). HEp-2 cells were pretreated with compounds for 1 hour prior to RSV A2 infection (MOI = 0.1). Plaque formation was quantified at 72 hours post-infection (hpi) and normalized to DMSO controls. […] (G) Target overlap analysis of four MMP-9-targeting inhibitors. (H) Viral titers in supernatants of HEp-2 cells transfected with MMP-specific siRNAs (24 h) followed by RSV A2 infection (MOI = 1, 72 h). mean ± SD, n = 3. The results are representatively shown with three random experiments. The error bars indicate the mean ± SD of three technical replicates (n = 3). Statistical significance was determined by one-way ANOVA with Dunnett’s post hoc test: *P < 0.05, ***P < 0.001; ns, not significant.
104 High-throughput antiviral screening
105 The L1100 protease inhibitor library (246 compounds; L1100, TargetMol) was
106 screened against RSV A2 in HEp -2 cells. Compounds (10 mM DMSO stocks) were
107 robotically dispensed 1 h pre -infection at final concentrations of 1, 5, 10 μM.
108 Infection rates (72 hpi) were normalized to PC786 (1 μM; positive control; HY -
as §15, §5, §6, §7, §8, §9, §10, §11, §12, §13, §14

[8] = test system: HEp-2 cells; assay: Cell viability assay (CellTiter-Glo) in HEp-2 cells; assay type: cell-based
Description: as §1, §2, §3

With `NCCSSCCN` [Cystamine] the CC50 at 72 h [1] was 387 µM and the “inhibition of RSV replication (antiviral efficacy)” value [2] was “did not inhibit RSV replication”.

Compound `C[C@H]1c2cccc(O)c2C(=O)C2=C(O)[C@]3(O)C(=O)C(C(N)=O)=C(O)[C@@H](N(C)C)[C@@H]3[C@@H](O)[C@@H]21` [Doxycycline] has a pEC50 ([3]; HEp-2, RSV A2, MOI = 0.1, 72 hpi, read-out: EC50) of 6.07, a pEC50 ([4]; HEp-2, RSV B18537, MOI = 0.1, 72 hpi, read-out: EC50) of 6.14 and a pEC50 ([5]; HBEC, RSV A2, MOI = 0.3, 72 hpi, read-out: EC50) of 5.89. The pEC50 ([6]; HBEC, RSV B18537, MOI = 0.3, 72 hpi, read-out: EC50) was 6.09 and the “inhibition of RSV infection in HEp-2 cells” value [7] was “significant dose-dependent inhibition”.

With `CCCCCCCC/C=C1\C=C(C(F)(F)F)c2cc(O)c(O)cc21` [E64FC26] the CC50 [8] was 0.8 µM and the “inhibition of RSV replication (antiviral efficacy)” value [2] was “strong antiviral efficacy”.

`CC(C)=CCc1c(O)c(CC=C(C)C)c2oc3c(O)ccc(O)c3c(=O)c2c1O` [Gartanin] gave a pEC50 ([3]; HEp-2) of 6.14, a pEC50 ([4]; HEp-2) of 6.13 and a pEC50 [5] of 6.20. The pEC50 [6] was 6.13 and the “inhibition of RSV infection in HEp-2 cells” value [7] was “significant dose-dependent inhibition”.
